Test results: patent US7947302B2, “Antithrombotic coating for drug eluting medical devices” (Cordis Corporation, priority 2005, dated 2011)

Legend:
[1] = system: human coronary artery smooth muscle cell; test: MTS cytotoxicity assay (FIG. 69); format: cell-based; conditions: concentrations up to 30,000.00 nanomolar (6.6 to 30,000.00 nanomolar tested)
From the text: Typically, a control is utilized to determine baseline toxicity.

[2] = system: human coronary artery smooth muscle cells; test: Anti-proliferative activity in synchronized cultured cells, two percent fetal bovine serum (FIG. 64-68); format: cell-based
From the text: (§1) The multiple curves represent various concentrations of topotecan ranging from zero to three hundred nanomolar concentrations.
(§2) The multiple curves represent various concentrations of etoposide ranging from zero to eight hundred nanomolar concentrations.
Referring to FIG. 66, there is illustrated, in graphical format, the anti-proliferative activity of Panzem® in synchronized cultured human coronary artery smooth muscle cells stimulated with two percent fetal bovine serum.
The multiple curves represent various concentrations of Panzem® ranging from zero to 100 micromolar concentrations.

[3] = In vivo release kinetics of cladribine from PVDF/HFP coating on Bx Velocity stents (FIG. 61); design: species or system Yorkshire pig; conditions: 1800 micrograms basecoat, thirty percent cladribine, 300 micrograms topcoat
From the text: FIG. 61 is a graphical representation of the in vivo release kinetics of cladribine from a polymeric coating on BxVelocity® stents, available from Cordis Corporation, implanted in a Yorkshire pig. The basecoat comprises an 85/15 ratio of PVDF and HFP and cladribine for a total combined weight of one thousand eight hundred micrograms (cladribine comprising thirty percent of the total weight). The topcoat comprises an 85/15 ratio of PVDF/HFP and no cladribine. The total weight of the topcoat is three hundred micrograms.

[4] = system: human coronary artery smooth muscle cells; test: Anti-proliferative activity in non-synchronized cultured cells, two percent fetal bovine serum (FIG. 57, 58); format: cell-based
From the text: FIG. 58 illustrates, in graphical format, the anti-proliferative activity of cladribine in non-synchronized cultured human coronary artery smooth muscle cells stimulated with two percent fetal bovine serum.
The multiple curves represent various concentrations of cladribine ranging from zero to nine hundred nanomolar concentrations.

[5] = In vivo release kinetics from rapamycin/cladribine EVA/BMA basecoat, porcine pharmacokinetics studies (FIG. 62, 63); design: species or system Yorkshire pigs; conditions: comparison of FIG. 63 with FIG. 62
From the text: The basecoat is applied to Bx Velocity® stents and implanted into Yorkshire pigs.
The basecoat is applied to BxVelocity® stents and implanted into Yorkshire pigs.

cell viability = test: Cell viability assay; format: cell-based
From the text: as §1, §2

[6] = In vivo release kinetics from rapamycin/mycophenolic acid EVA/BMA basecoat, porcine pharmacokinetics studies (FIG. 53, 54); conditions: 180 micrograms rapamycin, 180 micrograms mycophenolic acid, 240 micrograms EVA/BMA; none, 100 or 200 micrograms BMA topcoat
[7] = system: human coronary artery smooth muscle cells; test: Anti-proliferative activity of rapamycin with mycophenolic acid, non-synchronized cells, two percent fetal bovine serum (FIG. 52); format: cell-based; conditions: mycophenolic acid zero to one thousand nanomolar; leftward and upward shift
From the text: The multiple curves represent various concentrations of mycophenolic acid ranging from zero to one thousand nanomolar concentrations. […] This potentiation observed in cultured coronary artery smooth muscle cells preferably translates to an enhancement in anti-restenotic efficacy following vascular injury and a reduction in the required amount of either agent to achieve the desired anti-restenotic effect.

[8] = Liquid formulations with PEG 200, ethanol and water; concentrations by liquid chromatography; format: physicochemical; conditions: liquid formulation comprising 4 mg/ml of sirolimus
From the text: In accordance with exemplary embodiments of the present invention, a series of liquid formulations were developed for the local or regional delivery of water insoluble compounds such as sirolimus and its analogs, including CCl-779, ABT-578 and everolimus, through weeping balloons and catheter injection needles. […] These liquid formulations increase the apparent solubility of the pharmacologically active but water insoluble compounds by two to four orders of magnitude as compared to the solubility limits of the compounds in water. These liquid formulations rely on the use of a very small amount of organic solvents such as Ethanol (typically less than two percent) and a larger amount of safe amphiphilic (of or relating to a molecule having a polar, water soluble group attached to a non-polar, water insoluble […]) excipients such as polyethylene glycol (PEG 200, PEG 400) and vitamin E TPGS to enhance the solubility of the compounds. These liquid formulations of highly water insoluble compounds are stable and readily flowable at room temperature. Certain excipients, such as Vitamin E TPGS and BHT may be utilized to enhance the storage stability of sirolimus compounds through their anti-oxidation properties. […]

[9] = In vivo release kinetics from rapamycin/mycophenolic acid PVDF basecoat with PVDF topcoat, porcine pharmacokinetics studies (FIG. 56); conditions: 600 micrograms basecoat, 200 micrograms topcoat
From the text: The topcoat is two hundred micro grams.

[10] = system: human coronary artery smooth muscle cell; test: In vitro cell culture study of coronary artery smooth muscle cell proliferation (trichostatin A); format: cell-based
From the text: FIG. 51 is a graph of the inhibition of coronary artery smooth muscle cells by trichostatin A in a cell culture study.

tumor cell lines = conditions: cited from earlier work

## COc1cc2c(cc1O)CC[C@@H]1[C@@H]2CC[C@]2(C)[C@@H](O)CC[C@@H]12 [Panzem®, 2-methoxyestradiol]
[1]
  MTS assay: cell survival: do not reduce human coronary artery smooth muscle cell survival
[2]; Panzem 0.813 to 100 micromolar
  effect of addition to cells treated with rapamycin: increases the percent of inhibition of rapamycin alone
[2]; in vitro, agent alone
  anti-proliferative activity (FIG. 66, 67): extremely effective inhibitor

## Nc1nc(Cl)nc2c1ncn2[C@H]1C[C@H](O)[C@@H](CO)O1 [cladribine, 2-chlorodeoxyadenosine]
[3]
  in vivo elution from PVDF/HFP (85/15) coating: levels off significantly
[4]; cladribine 56.25 to 900 nanomolar
  effect of addition to cells treated with rapamycin: increases the percent inhibition of rapamycin alone
[4]; non-synchronized cells, two percent fetal bovine serum
  inhibition of human coronary artery smooth muscle cell proliferation: completely inhibits
[5]
  in vivo elution from EVA/BMA basecoat with BMA topcoat relative to rapamycin: elutes more rapidly than rapamycin

## COc1cc([C@@H]2c3cc4c(cc3[C@@H](O[C@@H]3O[C@@H]5CO[C@@H](C)O[C@H]5[C@H](O)[C@H]3O)[C@H]3COC(=O)[C@H]23)OCO4)cc(OC)c1O [etoposide]
[2]; etoposide 255.7 to eight-hundred nanomolar
  effect of addition to cells treated with rapamycin: increases the percent inhibition of rapamycin alone
Cell viability; concentrations up to ten micromolar
  cytotoxicity in a cell viability assay: non-cytotoxic

## COc1c(C)c2c(c(O)c1C/C=C(\C)CCC(=O)O)C(=O)OC2 [mycophenolic acid]
[6]
  in vivo elution from EVA/BMA basecoat relative to co-loaded drug: elutes more completely over a shorter duration than the rapamycin
[7]
  effect of addition on the anti-proliferative rapamycin dose response curve: potentiates the anti-proliferative activity of rapamycin

## CO[C@H]1C[C@@H]2CC[C@@H](C)[C@@](O)(O2)C(=O)C(=O)N2CCCC[C@H]2C(=O)O[C@H]([C@H](C)C[C@@H]2CC[C@@H](O)[C@H](OC)C2)CC(=O)[C@H](C)/C=C(\C)[C@@H](O)[C@@H](OC)C(=O)[C@H](C)C[C@H](C)/C=C/C=C/C=C/1C [rapamycin]
[8]
  concentration of sirolimus relative to the solubility of sirolimus in water: four hundred to about one thousand
[9]
  in vivo release rate from PVDF basecoat with PVDF topcoat relative to co-loaded drug: slower release rate than that of mycophenolic acid

## CC[C@@]1(O)C(=O)OCc2c1cc1n(c2=O)Cc2cc3c(CN(C)C)c(O)ccc3nc2-1 [topotecan]
[2]; topotecan 18.8 to 300 nanomolar
  effect of addition to cells treated with rapamycin: increases the percent inhibition of rapamycin alone
Cell viability; concentrations up to one micromolar
  cytotoxicity in a separate cell viability assay: non-cytotoxic

## CC(/C=C/C(=O)NO)=C\[C@@H](C)C(=O)c1ccc(N(C)C)cc1 [trichostatin A]
[10]
  inhibition of human coronary artery smooth muscle cell proliferation: completely inhibit
[10]; read-out: anti-proliferative IC50
  IC50: ~6 nM
Tumor cell lines
  anti-proliferative IC50's: low nM range
